Source: US11555036B2, “FGFR4 inhibitor, preparation method therefor and pharmaceutical use thereof” (Abbisko Therapeutics Co., Ltd., priority 2016, dated 2023)
pEC50, pIC50: −log10 of the molar value.

How the values were obtained:
[1] = molecular target: FGFR4 (Homo sapiens, UniProt P22455); assay: FGFR4 Caliper Assay (in vitro biochemical kinase analysis of FGFR4); settings: read-out: Enzymatic activity FGFR4 IC50
How it was run: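 Kinase reaction at 30° C for 40 min in 50 mM HEPES pH 7.5, 16 mM MgCl2, 1 mM DTT, 0.6% DMSO, stopped with EDTA. Phosphorylated and unphosphorylated fluorescent peptides separated by Caliper microfluidic mobility shift. IC50 by non-linear regression of percent inhibition.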

[2] = system: Huh7 hepatocellular carcinoma cells; assay: FGFR4 cell proliferation experiment, Cell Titer Glo (CTG); assay type: cell-based; settings: Homo sapiens, Huh-7, 72 h, HuH-7 cells, 3 days; for pIC50: concentration leading to absolute half growth inhibition; for pEC50: concentration leading to half maximal growth inhibition
How it was run: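 Cells treated with 5-fold serial dilutions starting at 10 μM for 3 days at 37° C, 5% CO2. Proliferation/survival quantified as cellular ATP by CellTiter-Glo luminescence.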

Chain of FGFR4 (P22455 22-802): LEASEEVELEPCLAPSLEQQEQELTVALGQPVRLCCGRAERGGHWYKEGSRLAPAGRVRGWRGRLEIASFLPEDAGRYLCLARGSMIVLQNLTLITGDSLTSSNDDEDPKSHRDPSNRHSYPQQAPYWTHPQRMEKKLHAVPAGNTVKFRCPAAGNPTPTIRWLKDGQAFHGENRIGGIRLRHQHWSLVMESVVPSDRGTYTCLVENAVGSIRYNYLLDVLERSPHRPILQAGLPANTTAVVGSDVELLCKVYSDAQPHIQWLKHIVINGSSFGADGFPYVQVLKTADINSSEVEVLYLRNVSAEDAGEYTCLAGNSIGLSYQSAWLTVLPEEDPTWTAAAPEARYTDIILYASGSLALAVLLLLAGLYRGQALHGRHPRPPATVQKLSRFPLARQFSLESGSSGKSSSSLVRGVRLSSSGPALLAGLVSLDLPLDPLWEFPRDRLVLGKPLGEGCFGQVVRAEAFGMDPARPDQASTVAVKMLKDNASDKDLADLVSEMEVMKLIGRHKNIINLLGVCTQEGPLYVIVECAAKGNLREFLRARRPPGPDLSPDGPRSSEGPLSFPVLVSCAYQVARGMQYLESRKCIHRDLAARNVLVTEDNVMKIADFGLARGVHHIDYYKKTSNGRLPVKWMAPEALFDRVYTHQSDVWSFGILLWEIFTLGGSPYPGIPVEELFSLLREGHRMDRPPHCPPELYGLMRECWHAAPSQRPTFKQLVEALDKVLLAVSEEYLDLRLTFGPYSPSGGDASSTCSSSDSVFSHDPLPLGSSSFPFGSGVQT

| SMILES | pIC50 [1] | pIC50 [2] | pEC50 [2] |
| --- | --- | --- | --- |
| C=CC(=O)N[C@H]1COC[C@H]1Nc1ncc2cc(-c3cc(OC)cc(OC)c3Cl)ncc2n1 [Example 121, N-((3R,4S)-4-((6-(2-chloro-3,5-dime-thoxyphenyl)pyrido[3,4-d]pyrimidin-2-yl)amino)tetrahydrofuran-3-yl)acrylamide] | 6.74 | 6.40 | 6.76 |
| C=CC(=O)N[C@H]1COC[C@H]1Nc1ncc2cc(-c3c(F)c(OC)cc(OC)c3F)nc(N3CCC(OC)C3)c2n1 (stereo partly drawn) [Example 678, N-((3R,4S)-4-((6-(2,6-difluoro-3,5-di-methoxyphenyl)-8-(3-methoxypyrro-lidin-1-yl)pyrido[3,4-d]pyrimidin-2-yl)amino)tetrahydrofuran-3-yl)acryl-amide] | 8.19 | 7.78 | 7.88 |
| C=CC(=O)N[C@H]1COC[C@H]1Nc1ncc2cc(-c3c(F)c(OC)cc(OC)c3F)nc(N3CC(C)(OC)C3)c2n1 [Example 666, N-((3R,4S)-4-((6-(2,6-difluoro-3,5-dimethoxyphenyl)-8-(3-methoxy-3-methylazetidin-1-yl)pyrido[3,4-d]pyri-midin-2-yl)amino)tetrahydrofuran-3-yl)acrylamide] | 8.35 | 8.34 | 8.49 |
| C=CC(=O)N[C@H]1COC[C@H]1Nc1ncc2cc(-c3c(Cl)c(OC)cc(OC)c3Cl)nc(NC)c2n1 [Example 433, N-((3R,4S)-4-((6-(2,6-dichloro-3,5-dimethoxyphenyl)-8-(methylamino)pyrido[3,4-d]pyrimidin-2-yl)amino)tetrahydrofuran-3-yl)acrylamide] | 8.12 | 7.58 | 7.71 |
| C=CC(=O)Nc1cccc(C)c1Nc1cc2c(=O)oc(-c3c(Cl)c(OC)cc(OC)c3Cl)cc2cn1 [Example 7, N-(2-((3-(2,6-dichloro-3,5-dimethoxyphenyl)-1-oxo-1 H-pyrano[4,3-c]pyridin-7-yl)amino)-3-methylphenyl) acrylamide] | 7.54 | < 5.00 | < 5.00 |
| C=CC(=O)N[C@H]1CCOC[C@H]1Nc1ncc2cc(-c3c(F)c(OC)cc(OC)c3F)nc(N3CC(C)(O)C3)c2n1 [Example 793, N-((3S,4S)-3-((6-(2,6-difluoro-3,5-dimethoxyphenyl)-8-(3-hydroxy-3-methylazetidin-1-yl)pyrido[3,4-d]py-rimidin-2-yl)amino)tetrahydro-2H-pyran-4-yl)acrylamide] | 8.28 | 8.00 | 8.10 |
| C=CC(=O)N[C@H]1COC[C@H]1Nc1ncc2cc(-c3c(Cl)c(OC)cc(OC)c3Cl)nc(NCC(C)(C)C)c2n1 [Example 462, N-((3R,4S)-4-((6-(2,6-dichloro-3,5-di-methoxyphenyl)-8-(neopentylamino)pyrido[3,4-d]pyrimidin-2-yl)amino)tetrahydrofuran-3-yl)acrylamide] | 7.84 | 7.42 | 7.61 |
| C=CC(=O)Nc1cnn(CCOC)c1-c1cc2cnc(-c3c(Cl)c(OC)cc(OC)c3Cl)cc2cn1 [Example 723, N-(5-(7-(2,6-dichloro-3,5-dimethoxyphenyl)-2,6-naphthyridin-3-yl)-1-(2-methoxyethyl)-1H-pyrazol-4-yl)acrylamide] | 7.11 | 5.92 | 6.47 |
| C=CC(=O)N[C@H]1COC[C@H]1Nc1ncc2cc(-c3c(Cl)c(OC)cc(OC)c3Cl)nc(N3CC(C)OC(C)C3)c2n1 (stereo partly drawn) [Example 690, N-((3R,4S)-4-((6-(2,6-dichloro-3,5-dimethoxyphenyl)-8-(2,6-dimethyl-morpholino)pyrido[3,4-d]pyrimidin-2-yl)amino)tetrahydrofuran-3-yl)acryl-amide] | 8.10 | 7.92 | 8.08 |
| C=CC(=O)N[C@H]1COC[C@H]1Nc1ncc2cc(-c3cc(OC)cc(OC)c3Cl)nc(NCC3CC3)c2n1 [Example 475, N-((3R,4S)-4-((6-(2-chloro-3,5-dimeth-oxyphenyl)-8-((cyclopropylmethyl)a-mino)pyrido[3,4-d]pyrimidin-2-yl)a-mino)tetrahydrofuran-3-yl)acrylamide] | 7.21 | 6.17 | 6.88 |
| C=CC(=O)N[C@H]1CCOC[C@H]1Nc1ncc2cc(-c3c(F)c(OC)cc(OC)c3F)nc(NCC)c2n1 [Example 787, N-((3S,4S)-3-((6-(2,6-difluoro-3,5-dimethoxyphenyl)-8-(ethylamino)pyri-do[3,4-d]pyrimidin-2-yl)amino)tetra-hydro-2H-pyran-4-yl)acrylamide] | 7.35 | 6.99 | 7.07 |
| C=CC(=O)Nc1cccc(C)c1Nc1cc2c(OC)nc(-c3c(Cl)c(OC)cc(OC)c3Cl)nc2cn1 [Example 10, N-(2-((2-(2,6-dichloro-3,5-dimethoxyphenyl)-4-methoxy-pyrido[3,4-d]pyrimidin-6-yl)amino)-3-methylphenyl) acrylamide] | 6.98 | 5.32 | 5.45 |
| C=CC(=O)N[C@H]1COC[C@H]1Nc1ncc2cc(-c3c(Cl)c(OC)cc(OC)c3Cl)nc(N3CC4(COC4)C3)c2n1 [Example 668, N-((3R,4S)-4-((6-(2,6-dichloro-3,5-dimethoxyphenyl)-8-(2-oxa-6-aza-spiro[3.3]heptan-6-yl)pyrido[3,4-d]py-rimidin-2-yl)amino)tetrahydrofuran-3-yl)acrylamide] | 7.83 | 7.65 | 7.80 |
| C=CC(=O)N[C@H]1COC[C@H]1Nc1ncc2cc(-c3c(F)c(OC)cc(OC)c3F)nc(NCC3CC3)c2n1 [Example 424, N-((3R,4S)-4-((8-((cyclopropylmeth-yl)amino)-6-(2,6-difluoro-3,5-dimeth-oxyphenyl)pyrido[3,4-d]pyrimidin-2-yl)amino)tetrahydrofuran-3-yl)acryl-amide] | 7.96 | 7.43 | 7.73 |
| C=CC(=O)N[C@H]1COC[C@H]1Nc1ncc2cc(-c3c(Cl)c(OC)cc(OC)c3Cl)nc(N3CC4(CCOCC4)C3)c2n1 [Example 675, N-((3R,4S)-4-((6-(2,6-dichloro-3,5-dimethoxyphenyl)-8-(7-oxa-2-azaspiro[3.5]nonan-2-yl)pyrido[3,4-d]pyrimidin-2-yl)amino)tetrahydrofuran-3-yl)acrylamide] | 7.96 | 8.06 | 8.21 |
| C=CC(=O)Nc1cc(N2CCN(C)CC2)cc(C)c1Nc1cc2c(=O)n(C)c(-c3c(Cl)c(OC)cc(OC)c3Cl)nc2cn1 [Example 75, N-(2-((2-(2,6-dichloro-3,5-dimethoxyphenyl)-3-methyl-4-oxo-3,4-dihydropyrido [3,4-d]pyrimidin-6-yl)amino)-3-methyl-5-(4-methyl-piperazin-1-yl)phenyl) acrylamide] | 6.61 | < 5.00 | < 5.00 |
| C=CC(=O)N[C@H]1COC[C@H]1Nc1ncc2cc(-c3c(Cl)c(OC)cc(OC)c3Cl)nc(OCC3CC3)c2n1 [Example 498, N-((3R,4S)-4-((8-(cyclopropylmethoxy)-6-(2,6-dichloro-3,5-dimethoxyphen-nyl)pyrido[3,4-d]pyrimidin-2-yl)amino)tetrahydrofuran-3-yl)acrylamide] | 5.06 | < 5.00 | 5.62 |
| C=CC(=O)N[C@H]1COC[C@H]1Nc1ncc2cc(-c3c(Cl)c(OC)cc(OC)c3Cl)nc(NCC)c2n1 [Example 434] | 8.08 | 7.74 | 8.02 |
| C=CC(=O)N[C@H]1COC[C@H]1Nc1ncc2cc(-c3c(Cl)c(OC)cc(OC)c3Cl)nc(OC)c2n1 [Example 423, N-((3R,4S)-4-((6-(2,6-dichloro-3,5-di-methoxyphenyl)-8-methoxypyrido[3,4-d]pyrimidin-2-yl)amino)tetrahydro-furan-3-yl)acrylamide] | 7.50 | 6.46 | 7.01 |
| C=CC(=O)N[C@H]1COC[C@H]1Nc1ncc2cc(-c3c(F)c(OC)cc(OC)c3F)nc(N3CCC(OC)CC3)c2n1 [Example 694, N-((3R,4S)-4-((6-(2,6-difluoro-3,5-dimethoxyphenyl)-8-(4-methoxypiper-idin-1-yl)pyrido[3,4-d]pyrimidin-2-yl)amino)tetrahydrofuran-3-yl)acryl-amide] | 8.32 | 7.92 | 8.00 |
| C=CC(=O)Nc1cn(C)nc1Nc1ncc2cc(-c3c(Cl)c(OC)cc(OC)c3Cl)nc(NCC3CC3)c2n1 [Example 76, N-(3-((8-((cyclopropylmethyl)amino)-6-(2,6-dichloro-3,5-dimethoxyphenyl)pyrido[3,4-d]pyrimidin-2-yl)amino)-1-methyl-1H-pyrazol-4-yl)acrylamide] | 7.62 | 7.20 | 7.62 |
| C=CC(=O)N[C@H]1COC[C@H]1Nc1ncc2cc(-c3c(F)c(OC)cc(OC)c3F)nc(NCC)c2n1 [Example 767, N-((3R,4S)-4-((6-(2,6-difluoro-3,5-dimethoxyphenyl)-8-(ethylamino)pyri-do[3,4-d]pyrimidin-2-yl)amino)tetra-hydrofuran-3-yl)acrylamide] | 8.15 | 7.35 | 7.62 |
| C=CC(=O)N[C@H]1COC[C@H]1Nc1ncc2cc(-c3c(Cl)c(OC)cc(OC)c3Cl)nc(NC3CC3)c2n1 [Example 655, N-((3R,4S)-4-((8-(cyclopropylamino)-6-(2,6-dichloro-3,5-dimethoxyphen-yl)pyrido[3,4-d]pyrimidin-2-yl)amino)tetrahydrofuran-3-yl)acrylamide] | 8.10 | 7.16 | 7.55 |
